This note sets out measurements from PubChem BioAssay (NCI).

Values joined by “and” are separate entries in the source; they are usually repeats but may differ in a detail not shown here. Equal entries are not always repeated.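 Step 1: Grow cells in 96-well plates. Step 2: Expose to compound for 48 hours at 5 concentrations. Step 3: Interpolate endpoints linearly; if unreached, use highest concentration. GI50 is the concentration that inhibits growth by half. TGI: concentration producing complete growth inhibition.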 A value given as a limit tells only on which side of the number the result lay.

Test systems include SK-MEL-5 melanoma; IGROV1 ovarian; HCC-2998 colon; PC-3 prostate; CAKI-1 renal; 786-0 renal; MDA-MB-435; U251 CNS; OVCAR-3 ovarian; OVCAR-4 ovarian.
Common to all, as to assay: NCI anticancer screen, dose series, 48 h

Turning to `CN(Cc1cnc2nc(N)nc(N)c2n1)c1ccc(C(=O)N[C@@H](CCS(=O)(=O)O)C(=O)O)cc1`, the TGI with SK-MEL-5 melanoma, with IGROV1 ovarian, with HCC-2998 colon, with PC-3 prostate, in the assay on CAKI-1 renal and with 786-0 renal was greater than 100 µM each time. Also, the TGI in the assay on MDA-MB-435, in the assay with U251 CNS, in the assay with OVCAR-3 ovarian and in the assay on OVCAR-4 ovarian was greater than 100 µM each time. In the assay on 786-0 renal, the GI50 was 0.0955 µM.
Take `COc1c2occc2c(N)c2ccc(=O)oc12`: the TGI with SK-MEL-5 melanoma, in the assay on IGROV1 ovarian, in the assay on HCC-2998 colon, in the assay with PC-3 prostate, in the assay with CAKI-1 renal and in the assay with 786-0 renal was greater than 100 µM each time. Also, the TGI with MDA-MB-435, in the assay on U251 CNS, in the assay on OVCAR-3 ovarian and in the assay on OVCAR-4 ovarian was greater than 100 µM each time.
For `COc1ccc2c(=O)oc3c(OC)cc(CCN(C)C)c4c(=O)oc1c2c34`, the TGI in the assay with SK-MEL-5 melanoma was 24.7 µM and 14.7 µM; with IGROV1 ovarian, 29.6 µM and 11.5 µM; with HCC-2998 colon, 25.2 µM; in the assay with PC-3 prostate, 29.4 µM; in the assay with CAKI-1 renal, 31.6 µM and 15.4 µM; in the assay with 786-0 renal it was 14.2 µM and 1.51 µM. Further, the TGI in the assay with MDA-MB-435 was 16.1 µM; in the assay with U251 CNS, 27.6 µM and 19 µM; with OVCAR-3 ovarian, 30 µM and 19.8 µM; with OVCAR-4 ovarian, 12.3 µM and 16.1 µM. The GI50 in the assay on IGROV1 ovarian was 15.9 µM and 3.03 µM; with CAKI-1 renal, 17.3 µM and 8.46 µM; with 786-0 renal, 3.66 µM and 0.762 µM; in the assay with OVCAR-4 ovarian, 3.47 µM and 8.43 µM.
For the compound `O=C(Nc1ncc(Cc2cccc(C(F)(F)F)c2)s1)c1ccc2c(c1)OCCO2`, the GI50 in the assay with SK-MEL-5 melanoma is 0.281 µM; in the assay with IGROV1 ovarian it was 0.4 µM; in the assay with HCC-2998 colon, 0.337 µM; in the assay on PC-3 prostate, 0.341 µM; with CAKI-1 renal, 0.141 µM; in the assay on 786-0 renal, 0.576 µM. For the same compound, the GI50 with MDA-MB-435 is 0.0352 µM; in the assay with U251 CNS, 0.385 µM; in the assay with OVCAR-3 ovarian, 0.223 µM; in the assay on OVCAR-4 ovarian, 0.608 µM. For the same compound, the TGI in the assay with SK-MEL-5 melanoma was 2.36 µM; in the assay on IGROV1 ovarian, greater than 100 µM; in the assay with HCC-2998 colon, 17.5 µM; with PC-3 prostate, greater than 100 µM; in the assay on CAKI-1 renal, greater than 45.9 µM; in the assay with 786-0 renal it was greater than 100 µM. The TGI with MDA-MB-435 was 0.172 µM; with U251 CNS it was greater than 48.2 µM; in the assay with OVCAR-3 ovarian, 0.629 µM; in the assay with OVCAR-4 ovarian, greater than 100 µM.
Turning to `O=c1cccc(C#CC#C[C@@H]2O[C@H]2CO)o1`, the GI50 with SK-MEL-5 melanoma is 1.87 µM; with IGROV1 ovarian, 0.183 µM; in the assay on HCC-2998 colon, 0.217 µM; in the assay on PC-3 prostate, 1.82 µM; in the assay with CAKI-1 renal it was 1.1 µM; in the assay with 786-0 renal, 0.626 µM. For the same compound, the GI50 with MDA-MB-435 is 2.12 µM; in the assay with U251 CNS it was 1.46 µM; in the assay with OVCAR-3 ovarian, 2.06 µM. The TGI with SK-MEL-5 melanoma stood at 3.9 µM; with IGROV1 ovarian, 0.339 µM; with HCC-2998 colon it was 0.55 µM; in the assay with PC-3 prostate, 4.1 µM; with CAKI-1 renal it was 2.71 µM; in the assay with 786-0 renal, 1.43 µM. The TGI in the assay with MDA-MB-435 turned out to be 4.56 µM; with U251 CNS, 3.07 µM; in the assay with OVCAR-3 ovarian it was 3.69 µM.
On to `Cc1nc2sccn2c1-c1nc2sccn2c1/C=C1/C(=O)Nc2ccccc21`, for which the GI50 with SK-MEL-5 melanoma is 2.94 µM; in the assay on IGROV1 ovarian, 1.92 µM; with HCC-2998 colon, 8.3 µM; in the assay with PC-3 prostate, 2.32 µM; in the assay on CAKI-1 renal, 5.29 µM; with 786-0 renal, 1.79 µM. The GI50 with MDA-MB-435 was 0.53 µM; in the assay on U251 CNS, 4.54 µM; in the assay with OVCAR-3 ovarian, 1.7 µM; with OVCAR-4 ovarian, 13.8 µM. Besides, the TGI in the assay with SK-MEL-5 melanoma came out at 12.5 µM; in the assay with IGROV1 ovarian it was 7.77 µM; in the assay with HCC-2998 colon it was 29.8 µM; with PC-3 prostate, 46.4 µM; in the assay with CAKI-1 renal, 69.4 µM; in the assay with 786-0 renal it was 24.7 µM. For the same compound, the TGI in the assay with MDA-MB-435 was 2.52 µM; in the assay with U251 CNS, 64.8 µM; in the assay on OVCAR-3 ovarian, 6.24 µM; in the assay with OVCAR-4 ovarian, greater than 100 µM.
Consider `Nc1nc(Cl)nc2c1ncn2C1CC(O)C(CO)O1` (stereo unspecified), for which the TGI with SK-MEL-5 melanoma is greater than 91.4 µM; in the assay with IGROV1 ovarian, greater than 100 µM; in the assay with HCC-2998 colon, greater than 100 µM; in the assay on PC-3 prostate, greater than 100 µM; with CAKI-1 renal it was 17.3 µM; with 786-0 renal it was greater than 100 µM. Besides, the TGI with MDA-MB-435 is greater than 100 µM; with U251 CNS it was greater than 96.5 µM; in the assay with OVCAR-3 ovarian it was greater than 100 µM; in the assay on OVCAR-4 ovarian it was greater than 100 µM. In addition, the GI50 with PC-3 prostate was greater than 100 µM; in the assay with 786-0 renal, 2.45 µM; with MDA-MB-435, 0.54 µM.
Regarding `CCCCNCCCNCCCNC(=O)c1csc(-c2csc(CCNC(=O)C(NC(=O)C(C)C(O)C(C)NC(=O)C(NC(=O)c3nc(C(CC(N)=O)NCC(N)C(N)=O)nc(N)c3C)C(OC3OC(CO)C(O)C(O)C3OC3OC(CO)C(O)C(OC(N)=O)C3O)c3cnc[nH]3)C(C)O)n2)n1` (stereo unspecified), the GI50 is 3.14 µM with SK-MEL-5 melanoma; 20.9 µM in the assay with IGROV1 ovarian; 15.9 µM with HCC-2998 colon; 1.46 µM in the assay on 786-0 renal; 0.807 µM in the assay with U251 CNS; 30.3 µM in the assay on OVCAR-3 ovarian. Also, the GI50 in the assay with OVCAR-4 ovarian is 0.459 µM. The TGI was 50 µM and 11.6 µM with SK-MEL-5 melanoma; 50 µM and > 84 µM in the assay with IGROV1 ovarian; 50 µM and > 100 µM in the assay on HCC-2998 colon; 50 µM in the assay on PC-3 prostate; 50 µM and 17 µM in the assay on CAKI-1 renal; 50 µM and 5.24 µM with 786-0 renal. Further, the TGI in the assay on MDA-MB-435 was 50 µM; with U251 CNS, 50 µM and 8.07 µM; in the assay with OVCAR-3 ovarian, 50 µM and 22.9 µM.
For the compound `COc1c(C)c(OCC=C(C)C)cc(CO)c1CO`, the TGI in the assay with SK-MEL-5 melanoma is 59.1 µM; in the assay on IGROV1 ovarian, greater than 100 µM; in the assay on HCC-2998 colon, greater than 100 µM; in the assay on PC-3 prostate, greater than 100 µM; in the assay with CAKI-1 renal it was greater than 100 µM; in the assay with 786-0 renal, greater than 100 µM. For the same compound, the TGI in the assay on MDA-MB-435, with U251 CNS and with OVCAR-4 ovarian was greater than 100 µM throughout.
